Consider 31 compounds from patent publication US10736974B2, “Scaffolds and multifunctional intermediates for imaging PSMA and cancer therapy” (THE JOHNS HOPKINS UNIVERSITY, priority 2014, dated 2020).

Data set [1] addresses T1, PSMA (Homo sapiens (Human), UniProt Q04609). The experiment in a line: NAALADase assay: PSMA inhibitory activity, fluorescence-based Amplex Red Glutamic Acid assay, lysates of LNCaP cell extracts. Format: biochemical. Here is the method: Briefly, lysates of LNCaP cell extracts (25 μL) were incubated with the inhibitor (12.5 μL) in the presence of 4 μM N-acetylaspartylglutamate (NAAG) (12.5 μL) for 120 min. The amount of the glutamate released by NAAG hydrolysis was measured by incubating with a working solution (50 μL) of the Amplex Red Glutamic Acid Kit for 60 min. […] Assays were performed in triplicate. Data analysis was performed using GraphPad Prism version 4.00 for Windows (GraphPad Software, San Diego, Calif.).

Data set [2] deals with T1, PSMA. Conditions: from Chen, 2008; read-out: Ki, PSMA inhibition; cited from earlier work.
Data set [3] addresses T1, PSMA. Conditions: cited from earlier work; for blood pool and salivary / lacrimal gland uptake in clinical PET imaging: patients.
[4] abbreviates: Table 3, Cheng-Prusoff conversion, read-out: Ki.

Like-named read-outs stand apart in the source and are kept apart here.

T1 sequence (Q04609 whole entry): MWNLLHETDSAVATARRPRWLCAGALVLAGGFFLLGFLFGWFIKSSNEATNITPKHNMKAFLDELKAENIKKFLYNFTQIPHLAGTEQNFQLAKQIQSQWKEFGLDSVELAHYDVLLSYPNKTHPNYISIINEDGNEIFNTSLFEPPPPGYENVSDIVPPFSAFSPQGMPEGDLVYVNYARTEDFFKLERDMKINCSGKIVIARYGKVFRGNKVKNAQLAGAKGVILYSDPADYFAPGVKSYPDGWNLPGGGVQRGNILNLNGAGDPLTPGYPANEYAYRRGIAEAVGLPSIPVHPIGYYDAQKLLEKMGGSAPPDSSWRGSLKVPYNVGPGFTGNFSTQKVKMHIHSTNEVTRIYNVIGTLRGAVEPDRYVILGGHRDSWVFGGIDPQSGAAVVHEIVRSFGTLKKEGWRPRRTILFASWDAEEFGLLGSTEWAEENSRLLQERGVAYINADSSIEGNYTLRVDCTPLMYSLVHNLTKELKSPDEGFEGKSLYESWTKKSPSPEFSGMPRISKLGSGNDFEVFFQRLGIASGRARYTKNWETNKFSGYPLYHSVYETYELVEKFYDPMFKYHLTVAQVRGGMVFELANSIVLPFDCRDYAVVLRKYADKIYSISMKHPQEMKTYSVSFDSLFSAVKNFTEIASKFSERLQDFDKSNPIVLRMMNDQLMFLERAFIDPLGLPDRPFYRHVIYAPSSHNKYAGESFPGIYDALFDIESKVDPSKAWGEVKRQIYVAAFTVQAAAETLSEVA

`O=C(O)CC[C@H](NC(=O)N[C@@H](CSCc1ccc(I)cc1)C(=O)O)C(=O)O` [DCIBC, reference compound]: at PSMA [1] (Table 4, read-out: Ki), the inhibition constant (Ki) is 0.03 nM.

For the compound `O=C(O)CC[C@H](NC(=O)O[C@@H](CCNC(=O)c1ccc(F)cc1)C(=O)O)C(=O)O` [XY-16], at PSMA [1] (Table 3), 4500 nM corresponded to half-maximal inhibition (IC50). Further, on PSMA [1] (setting [4]), the inhibition constant (Ki) is 900 nM.

Compound `O=C(O)CC[C@H](NC(=O)O[C@H](CCNC(=O)c1ccc(F)cc1)C(=O)O)C(=O)O` [XY-17] yielded an IC50 on PSMA [1] (Table 3) of 4900 nM. In addition, the Ki at PSMA [1] (setting [4]) turned out to be 980 nM.

For the compound `O=C(O)CC[C@H](NC(=O)O[C@@H](CCCCNC(=O)c1ccc(F)cc1)C(=O)O)C(=O)O` [XY-20, (S)-2-(((((S)-1-carboxy-5-(4-fluorobenzamido)pentyl)oxy)carbonyl)amino)pentanedioic acid], the “reduction in binding affinity compared to 9 (YC-I-26)” value on PSMA [1] was “more than 150 fold”. The IC50 against PSMA [1] (Table 3) is 210 nM. The Ki on PSMA [1] (setting [4]) turned out to be 42 nM.

The compound `O=C(O)CC[C@H](NC(=O)O[C@@H](CCCCNC(=O)c1ccc2ccccc2c1)C(=O)O)C(=O)O` [XY-21] registered an IC50 against PSMA [1] (Table 3) of 60 nM. Also, the Ki on PSMA [1] (setting [4]) worked out at 12 nM.

`COc1ccc2cc(C(=O)NCCCC[C@H](OC(=O)N[C@@H](CCC(=O)O)C(=O)O)C(=O)O)ccc2c1` [XY-22] came in with an IC50 on PSMA [1] (Table 3) of 104 nM. Moreover, on PSMA [1] (setting [4]), the inhibitory constant (Ki) amounted to 20 nM.

`COc1ccc(-c2ccc(C(=O)NCCCC[C@H](OC(=O)N[C@@H](CCC(=O)O)C(=O)O)C(=O)O)cc2)cc1` [XY-23] gave a half-inhibitory concentration (IC50) against PSMA [1] (Table 3) of 30 nM. For the same compound, on PSMA [1] (setting [4]), the inhibitory constant (Ki) came out at 6 nM.

Turning to `O=C(O)CC[C@H](NC(=O)O[C@@H](CCCCNC(=O)c1ccc(-c2ccc(OCCF)cc2)cc1)C(=O)O)C(=O)O` [XY-24], inhibition against PSMA [1] (Table 3) was half-maximal at 120 nM (IC50). In addition, the inhibition constant (Ki) at PSMA [1] (setting [4]) is 22 nM.

`O=C(O)CC[C@H](NC(=O)O[C@@H](CCCCNC(=O)c1ccc(I)cc1)C(=O)O)C(=O)O` [XY-26] registered a concentration for half-maximal inhibition (IC50) on PSMA [1] (Table 3) of 4.3 nM. Besides, the Ki at PSMA [1] (read-out: Ki, PSMA inhibition) was determined as 0.9 nM.

Compound `COc1ccc(C(=O)NCCCC[C@H](OC(=O)N[C@@H](CCC(=O)O)C(=O)O)C(=O)O)cc1` [XY-27] gave a concentration for half-maximal inhibition (IC50) against PSMA [1] (Table 3) of 100 nM. The Ki at PSMA [1] (setting [4]) was 21 nM.

On PSMA [1] (Table 3), `CSc1ccc(C(=O)NCCCC[C@H](OC(=O)N[C@@H](CCC(=O)O)C(=O)O)C(=O)O)cc1` [XY-28] displayed an IC50 of 24 nM. Also, the inhibitory constant (Ki) on PSMA [1] (setting [4]) was 4.8 nM.

Regarding `CC(=O)Nc1ccc(C(=O)NCCCC[C@H](OC(=O)N[C@@H](CCC(=O)O)C(=O)O)C(=O)O)cc1` [XY-29], it took 660 nM to reach half-maximal inhibition at PSMA [1] (Table 3) (IC50). For the same compound, on PSMA [1] (setting [4]), the Ki was 130 nM.

At PSMA [1] (Table 3), `CNC(=O)c1ccc(C(=O)NCCCC[C@H](OC(=O)N[C@@H](CCC(=O)O)C(=O)O)C(=O)O)cc1` [XY-30] yielded a concentration for half-maximal inhibition (IC50) of 1300 nM. Besides, at PSMA [1] (setting [4]), the Ki is 270 nM.

`O=C(O)CC[C@H](NC(=O)NC[C@H](NC(=O)c1ccc(F)cc1)C(=O)O)C(=O)O` [XY-34] displayed a half-inhibitory concentration (IC50) at PSMA [1] (Table 3) of 43000 nM. Further, the inhibitory constant (Ki) on PSMA [1] (setting [4]) was found to be 9.7 nM.

Take `O=C(O)CC[C@H](NC(=O)NC[C@H](NC(=O)CCCNC(=O)c1ccc(F)cc1)C(=O)O)C(=O)O` [XY-35]: the half-maximal inhibitory concentration (IC50) at PSMA [1] (Table 3) came to 8000 nM. Moreover, the Ki on PSMA [1] (setting [4]) is 1600 nM.

At PSMA [1] (Table 3), `O=C(O)CC[C@H](NC(=O)O[C@@H](CCCCNC(=O)c1ccc(SCCF)cc1)C(=O)O)C(=O)O` [XY-38] had a half-inhibitory concentration (IC50) of 41 nM. In addition, the Ki at PSMA [1] (setting [4]) is 8.3 nM.

`O=C(O)CC[C@H](NC(=O)O[C@@H](CCCCNC(=O)c1ccc(SCc2ccc(F)cc2)cc1)C(=O)O)C(=O)O` [XY-39]: on PSMA [1] (Table 3), the midpoint of inhibition, the IC50, lay at 46 nM. Also, the Ki on PSMA [1] (setting [4]) turned out to be 9.3 nM.

`CSc1ccc(C(=O)NCCCC(=O)N[C@H](CNC(=O)N[C@@H](CCC(=O)O)C(=O)O)C(=O)O)cc1` [XY-40]: the half-inhibitory concentration (IC50) against PSMA [1] (Table 3) worked out at 1.3 nM. Further, the inhibitory constant (Ki) at PSMA [1] (setting [4]) worked out at 0.26 nM.

On PSMA [1] (Table 3), `O=C(O)CC[C@H](NC(=O)O[C@@H](CCCCNC(=O)c1ccc(-c2ccccc2)cc1F)C(=O)O)C(=O)O` [XY-42] showed an IC50 of 86 nM. Besides, the Ki on PSMA [1] (setting [4]) is 13 nM.

Compound `O=C(O)CC[C@H](NC(=O)O[C@@H](CCCCNC(=O)c1ccc(I)cc1F)C(=O)O)C(=O)O` [XY-43] returned a 50% inhibitory concentration (IC50) against PSMA [1] (Table 3) of 1.6 nM. At PSMA [1] (setting [4]), the Ki is 0.32 nM.

In the case of `O=CO[C@@H](CNC(=O)N[C@@H](CCC(=O)O)C(=O)O)NC(=O)CCCNC(=O)c1ccc(I)cc1F` [XY-44], the Ki came out at 0.017 nM at PSMA [1] (Table 4, read-out: Ki) and 0.02 nM on PSMA [1] (read-out: Ki, PSMA inhibition).

Take `O=CO[C@@H](CNC(=O)N[C@@H](CCC(=O)O)C(=O)O)NC(=O)CCCNC(=O)c1ccc(C2=CCCCC2)cc1F` [XY-45]: on PSMA [1] (Table 4, read-out: Ki), the Ki was 0.1 nM.

On to `O=C(O)CC[C@H](NC(=O)NC[C@@H](NC(=O)CCCNC(=O)c1ccc(-c2ccccc2)cc1F)C(=O)O)C(=O)O` [XY-46], for which it took 2 nM to reach half-maximal inhibition at PSMA [1] (Table 3) (IC50). Also, the Ki at PSMA [1] (setting [4]) came to 0.4 nM.

On to `O=C(O)CC[C@H](NC(=O)O[C@@H](CCCCNC(=O)c1ccc(Cl)cc1F)C(=O)O)C(=O)O` [XY-49], for which the IC50 on PSMA [1] (Table 3) stood at 192 nM. Also, the Ki on PSMA [1] (setting [4]) turned out to be 38 nM.

`O=C(O)CC[C@H](NC(=O)O[C@@H](CCCCNC(=O)c1ccc(I)cc1OCCCCNC(=O)c1ccc(I)cc1)C(=O)O)C(=O)O` [XY-50] registered an IC50 on PSMA [1] (Table 3) of 3800 nM. Further, the inhibition constant (Ki) at PSMA [1] (setting [4]) is 770 nM.

As for `Cc1cc(Br)ccc1C(=O)NCCCC(=O)N[C@H](CNC(=O)N[C@@H](CCC(=O)O)C(=O)O)OC=O` [XY-58], the inhibitory constant (Ki) on PSMA [1] (Table 4, read-out: Ki) was determined as 0.036 nM; at PSMA [1] (read-out: Ki, PSMA inhibition), 0.04 nM.

For the compound `O=CO[C@@H](CNC(=O)N[C@@H](CCC(=O)O)C(=O)O)NC(=O)CCCNC(=O)c1ccc(Br)cc1` [XY-59], the Ki on PSMA [1] (Table 4, read-out: Ki) came to 0.02 nM.

As for `O=CO[C@@H](CNC(=O)N[C@@H](CCC(=O)O)C(=O)O)NC(=O)CCCNC(=O)c1ccc(F)cc1` [YC-I-26, reference compound], the Ki is 0.3 nM at PSMA [1] (Table 4, read-out: Ki) and 0.25 nM at PSMA [2].

As to `O=C(O)CC[C@H](NC(=O)N[C@@H](CSCc1ccc([18F])cc1)C(=O)O)C(=O)O` [[^18F]DCFBC], the “blood pool and salivary / lacrimal gland uptake in clinical PET imaging” value at PSMA [3] is reported as “persistent blood pool occupancy but low salivary gland uptake”.

As for `O=C(O)CC[C@H](NC(=O)N[C@@H](CCCCNC(=O)Nc1ccc([123I])cc1)C(=O)O)C(=O)O` [[^124I]-MIP-1095], the “blood pool and salivary / lacrimal gland uptake in clinical PET imaging” value on PSMA [3] is “rapid clearance from the blood but high uptake in salivary and lacrimal glands”.

Take `O=C(O)CC[C@H](NC(=O)N[C@@H](CCCCNC(=O)Nc1ccc([131I])cc1)C(=O)O)C(=O)O` [[^131I]-MIP-1095]: on PSMA [3] (Zechmann, 2014), the “dose-limiting organs from absorbed dose estimates” value is “salivary glands, lower large intestinal wall, and kidneys”.

What is called Ki is the dissociation constant of the complex between target and ligand, obtained from inhibition or displacement. What is called IC50 is the concentration that gives 50% inhibition. Low values mean greater potency, high ones weaker potency.
